Patent publication US20260015337A1 (Trawsfynydd Therapeutics, Inc., priority 2022, published 2026)

These compounds were tested against 3CL Protease (Severe acute respiratory syndrome coronavirus 2, UniProt P0DTD1) (assay: 3CL Protease enzymatic activity assay (BPS Bioscience Assay Kit #78043-1, fluorescence)). Details: Table A; 30 min preincubation, 40 μM substrate, 4 hours at room temperature; read-out: IC50, nM (3CL Protease enzymatic activity).
Assay type: biochemical, SARS-CoV-2
Method: For determination of 3CL Protease enzymatic activity was used Assay Kit of BPS Bioscience, San Diego, CA (Catalog #78043-1).
All samples and controls should be tested in duplicate. • 1) Just before use, dilute 0.5 M DTT 500 times into the 3CL Protease Assay Buffer to obtain a DTT concentration of 1 mM. For example, add 10 μl of 0.5 M DTT to 5 ml of assay buffer. Prepare enough DTT-containing buffer as required for the assay. Store the remaining assay buffer at −20° C. • 2) Thaw the 3CL Protease on ice. Briefly spin the tube containing the enzyme to recover the full content of the tube. Note: 3CL Protease enzyme is sensitive to freeze/thaw cycles. […] Note: The exact concentration and volume of enzyme is lot-specific and will be indicated on the tube. Calculate required dilution from the information in the tube. It may be desirable to dilute the enzyme serially to avoid using large amounts of protease assay buffer for the dilution. • 4) Add 30 μl of diluted 3CL Protease to the wells designated as “Positive Control,” “Inhibitor Control,” and “Test Inhibitor.” Add 30 μl of Assay Buffer (containing 1 mM DTT) to the “Blank” wells. • 5) Dilute the 50 μg GC376 in 200 μl of Assay Buffer to obtain a 500 μM solution. Add 10 μl of GC376 (500 μM) to the wells labeled “Inhibitor Control”. Aliquot and store the remaining solution at −80° C. • 6) Prepare the Test Inhibitor. The final concentration of DMSO in the assay should not exceed 1%. If the Test Inhibitor is dissolved in DMSO, make a 100-fold higher concentration of the compound than the highest desired concentration. Then make a 20-fold dilution in 1× Assay Buffer (containing DTT). At this step the compound concentration is 5-fold higher than the final concentration. If the test inhibitor is dissolved in water, make a 5-fold higher concentration of the test compound than the final desired concentration in the Assay buffer (containing DTT). Add 10 μl of Test Inhibitor to each well designated “Test Inhibitor”. • 7) Diluent Solution (no inhibitor): add 10 μl of assay buffer (if the test compound is water soluble and was diluted in assay buffer) or 10 μl of 5% DMSO diluted in assay buffer (if DMSO was used to dissolve the test inhibitor) to “Blank” and “Positive Control” wells.
• 8) Preincubate for 30 min at room temperature with slow shaking. • 9) Dilute the 25 μl of 3CL Protease substrate (10 mM) in 1.25 ml of the Assay Buffer containing DTT, to make a […] solution. The final concentration of the 3CL Protease substrate in a 50 μl reaction is 40 μM. • 10) Start the reaction by adding 10 μl of the substrate solution to all the wells. Seal the plate with the plate sealer and incubate for 4 hours at room temperature with slow shaking. • 11) Measure the fluorescence intensity in a microtiter plate-reader fluorometer (Tecan Spark Cyto) capable of excitation at a wavelength 360 nm and detection of emission at a wavelength 460 nm. The fluorescence intensity can also be measured kinetically. The “Blank” value is subtracted from all other values. • The % inhibition was then used to calculate the IC50 values.
`Cc1ccc2[nH]c(=O)c(C[C@H](C#N)NC(=O)C3C4C(CN3C(=O)[C@H](NC(=O)OC(C)C)C(C)(C)C)C4(C)C)cc2c1` (stereo in doubt) [Compound 202, Isopropyl N-[(1R)-1-[(1S)-2-[[(1R)-1-cyano-2-(6-methyl-2-oxo-1H-quinolin-3-yl)ethyl]carbamoyl]-6,6-dimethyl-3-azabicyclo[3.1.0]hexane-3-carbonyl]-2,2-dimethyl-propyl]carbamate] showed an IC50 of 100 to 250 nM. `Cc1ccc2[nH]c(=O)c(C[C@H](C#N)NC(=O)C3C4C(CN3C(=O)[C@H](NS(=O)(=O)C3CC3)C(C)(C)C)C4(C)C)cc2c1` (stereo in doubt) [Compound 203, (1S)—N-[(1R)-1-Cyano-2-(6-methyl-2-oxo-1H-quinolin-3-yl)ethyl]-3-[(2R)-2-(cyclopropylsulfonylamino)-3,3-dimethyl-butanoyl]-6,6-dimethyl-3-azabicyclo[3.1.0]hexane-2-carboxamide] gave an IC50 of 50 to 100 nM. `Cc1ccc2[nH]c(=O)c(C[C@H](C#N)NC(=O)C3C4C(CN3C(=O)[C@H](NC(=O)C(C)C)C(C)(C)C)C4(C)C)cc2c1` (stereo in doubt) [Compound 204, (1S)—N-[(1R)-1-cyano-2-(6-methyl-2-oxo-1H-quinolin-3-yl)ethyl]-3-[(2R)-3,3-dimethyl-2-(2-methylpropanoylamino)butanoyl]-6,6-dimethyl-3-azabicyclo[3.1.0]hexane-2-carboxamide] gave an IC50 of 50 to 100 nM. In the case of `Cc1ccc2[nH]c(=O)c(C[C@@H](C#N)NC(=O)[C@@H]3[C@H]4[C@H](CN3C(=O)[C@@H](NC(=O)C(F)(F)F)C(C)(C)C)C4(C)C)cc2c1` [Compound 113, (1S,2S,5S)—N-[(1S)-1-cyano-2-(6-methyl-2-oxo-1H-quinolin-3-yl)ethyl]-3-[(2S)-3,3-dimethyl-2-[(2,2,2-trifluoroacetyl)amino]butanoyl]-6,6-dimethyl-3-azabicyclo[3.1.0]hexane-2-carboxamide], the IC50 is reported as less than 50 nM. In the case of `Cc1ccc2[nH]c(=O)c(C[C@H](C#N)NC(=O)[C@@H]3[C@H]4[C@H](CN3C(=O)[C@@H](NC(=O)C(F)(F)F)C(C)(C)C)C4(C)C)cc2c1` [Compound 114, (1S,2S,5S)—N-[(1R)-1-cyano-2-(6-methyl-2-oxo-1H-quinolin-3-yl)ethyl]-3-[(2S)-3,3-dimethyl-2-[(2,2,2-trifluoroacetyl)amino]butanoyl]-6,6-dimethyl-3-azabicyclo[3.1.0]hexane-2-carboxamide], the IC50 is reported as no less than 1000 nM. With `Cc1ccc2c(c1)CC(C[C@@H](C#N)NC(=O)[C@@H]1[C@@H]3[C@H](CN1C(=O)[C@@H](NC(=O)C(F)(F)F)C(C)(C)C)C3(C)C)C(=O)N2` (stereo partly drawn) [Compound 120, (1R,2S,5S)—N-[(1S)-1-Cyano-2-(6-methyl-2-oxo-3,4-dihydro-1H-quinolin-3-yl)ethyl]-3-[(2S)-3,3-dimethyl-2-[(2,2,2-trifluoroacetyl)amino]butanoyl]-6,6-dimethyl-3-azabicyclo[3.1.0]hexane-2-carboxamide] the IC50 was less than 50 nM. `CC(C)(C)[C@H](NS(C)(=O)=O)C(=O)N1C[C@H]2[C@H]([C@H]1C(=O)NC(C#N)Cc1cc3cnccc3[nH]c1=O)C2(C)C` (stereo partly drawn) [Compound 130, (1S,2S,5S)-N-[1-cyano-2-(2-oxo-1H-1,6-naphthyridin-3-yl)ethyl]-3-[(2S)-2-(methanesulfonamido)-3,3-dimethyl-butanoyl]-6,6-dimethyl-3-azabicyclo[3.1.0]hexane-2-carboxamide] was tested, and the IC50 was less than 50 nM. `Cc1ccc2[nH]c(=O)c(CC(C#N)NC(=O)[C@@H]3[C@H]4[C@H](CN3C(=O)[C@@H](Nc3ccnc(C)n3)C(C)(C)C)C4(C)C)cc2c1` (some centres unmarked) [Compound 153, 3-[3,3-Dimethyl-2-(2-methyl-pyrimidin-4-ylamino)-butyryl]-6,6-dimethyl-3-aza-bicyclo[3.1.0]hexane-2-carboxylic acid [1-cyano-2-(6-methyl-2-oxo-1,2-dihydro-quinolin-3-yl)-ethyl]-amide] gave an IC50 of no less than 1000 nM. Work on `Cc1ccc2[nH]c(=O)c(CC(C#N)NC(=O)[C@H](Cc3ccccc3)NC(=O)[C@@H](NS(=O)(=O)CC(F)(F)F)C(C)(C)C)cc2c1` (stereo partly drawn) [Compound 164, (2S)—N-((2S)-1-((1-Cyano-2-(6-methyl-2-oxo-1,2-dihydroquinolin-3-yl)ethyl)amino)-1-oxo-3-phenylpropan-2-yl)-3,3-dimethyl-2-((2,2,2-trifluoroethyl)sulfonamido)butanamide] yielded an IC50 of 100 to 250 nM. Compound `Cc1ccc2[nH]c(=O)c(CC(C#N)NC(=O)[C@H](Cc3cc(F)c(F)cc3F)NC(=O)[C@@H](NS(=O)(=O)CC(F)(F)F)C(C)(C)C)cc2c1` (stereo partly drawn) [Compound 166, (2S)—N-((2S)-1-((1-Cyano-2-(6-methyl-2-oxo-1,2-dihydroquinolin-3-yl)ethyl)amino)-1-oxo-3-(2,4,5-trifluorophenyl)propan-2-yl)-3,3-dimethyl-2-((2,2,2-trifluoroethyl)sulfonamido)butanamide] has an IC50 of 500 to 1000 nM. Compound `CC(C)(C)[C@H](NC(=O)C(F)(F)F)C(=O)N1C[C@H]2[C@@H]([C@H]1C(=O)N[C@@H](C#N)Cc1cc3cnccc3[nH]c1=O)C2(C)C` [Compound 173, (1R,2S,5S)—N—((R)-1-Cyano-2-(2-oxo-1,2-dihydro-1,6-naphthyridin-3-yl)ethyl)-3-((S)-3,3-dimethyl-2-(2,2,2-trifluoroacetamido)butanoyl)-6,6-dimethyl-3-azabicyclo[3.1.0]hexane-2-carboxamide] has an IC50 of no less than 1000 nM. `CC(C)(C)[C@H](NC(=O)C(F)(F)F)C(=O)N1C[C@H]2[C@@H]([C@H]1C(=O)N[C@H](C#N)Cc1cc3cnccc3[nH]c1=O)C2(C)C` [Compound 174, (1R,2S,5S)—N—((S)-1-Cyano-2-(2-oxo-1,2-dihydro-1,6-naphthyridin-3-yl)ethyl)-3-((S)-3,3-dimethyl-2-(2,2,2-trifluoroacetamido)butanoyl)-6,6-dimethyl-3-azabicyclo[3.1.0]hexane-2-carboxamide] gave an IC50 of less than 50 nM. Work on `COc1cc2[nH]c(=O)c(C[C@@H](C#N)NC(=O)[C@@H]3[C@@H]4[C@H](CN3C(=O)[C@@H](NC(=O)C(F)(F)F)C(C)(C)C)C4(C)C)cc2cc1C` [Compound 175, (1R,2S,5S)—N-[(1S)-1-Cyano-2-(7-methoxy-6-methyl-2-oxo-1H-quinolin-3-yl)ethyl]-3-[(2S)-3,3-dimethyl-2-[(2,2,2-trifluoroacetyl)amino]butanoyl]-6,6-dimethyl-3-azabicyclo[3.1.0]hexane-2-carboxamide] yielded an IC50 of 50 to 100 nM. Work on `Cc1cc2cc(C[C@@H](C#N)NC(=O)[C@@H]3[C@@H]4[C@H](CN3C(=O)[C@@H](NC(=O)C(F)(F)F)C(C)(C)C)C4(C)C)c(=O)[nH]c2cc1F` [Compound 176, (1R,2S,5S)—N—((S)-1-Cyano-2-(7-fluoro-6-methyl-2-oxo-1,2-dihydroquinolin-3-yl)ethyl)-3-((S)-3,3-dimethyl-2-(2,2,2-trifluoroacetamido)butanoyl)-6,6-dimethyl-3-azabicyclo[3.1.0]hexane-2-carboxamide] yielded an IC50 of 50 to 100 nM. Compound `CC(C)(C)[C@H](NC(=O)C(F)(F)F)C(=O)N1C[C@H]2[C@@H]([C@H]1C(=O)N[C@H](C#N)Cc1cc3cc(F)c(F)cc3[nH]c1=O)C2(C)C` [Compound 177, (1R,2S,5S)—N—((S)-1-Cyano-2-(6,7-difluoro-2-oxo-1,2-dihydroquinolin-3-yl)ethyl)-3-((S)-3,3-dimethyl-2-(2,2,2-trifluoroacetamido)butanoyl)-6,6-dimethyl-3-azabicyclo[3.1.0]hexane-2-carboxamide] has an IC50 of 50 to 100 nM. `Cc1ccc2[nH]c(=O)c(C[C@@H](C#N)NC(=O)[C@@H]3[C@@H]4[C@H](CN3C(=O)[C@@H](NC(=O)C(F)(F)F)C(C)(C)C)C4(C)C)c(C)c2c1` [Compound 178, (1R,2S,5S)—N—((S)-1-Cyano-2-(4,6-dimethyl-2-oxo-1,2-dihydroquinolin-3-yl)-ethyl)-3-((S)-3,3-dimethyl-2-(2,2,2-trifluoroacetamido)butanoyl)-6,6-dimethyl-3-azabicyclo[3.1.0]hexane-2-carboxamide] was tested, and the IC50 was 100 to 250 nM. `COc1cc2cc(C[C@@H](C#N)NC(=O)[C@@H]3[C@@H]4[C@H](CN3C(=O)[C@@H](NC(=O)C(F)(F)F)C(C)(C)C)C4(C)C)c(=O)[nH]c2cc1C` [Compound 179] showed an IC50 of 50 to 100 nM.
